Laboratory results from patent US20110183969A1, “ANTIFUNGAL COMBINATION THERAPY” (priority 2008, published 2011).
≈ marks a conversion by molar mass, not a printed value.

Legend:
Test in all cases: MIC (YAG medium)
Format in all cases: cell-based
Aspergillus terreus AT49 = settings: YAG medium, MIC banded into grades, AT49; for MIC: Aspergillus terreus, read-out: MIC A. terreus 49 (grade)
Method: (§1) Between 1 and 5 mgs of compound were accurately weighed out into a sterile Eppendorf tube. The compound was dissolved in DMSO to give a solution containing 5 mg/mL. Tubes were stored at −20° C. until required.
(§2) On the day of testing thawed solutions were vortex mixed to ensure homogeneity. 30 μL of solution was removed and added to 570 μL of sterile water in a separate sterile Eppendorf The thoroughly mixed solution was used to prepare a series of doubling dilutions in water, in a deep well plate. […] replicate plates were prepared using a Minitrak by aspirating 20 μL from each well into eleven clear polystyrene 96 well plates.
(§3) Spores of Aspergillus spp. (Aspergillus fumigatus [two strains], Aspergillus terreus [two strains], Aspergillus niger and Aspergillus flavus) were harvested from cultures grown on Sabarauds agar for 5 days, and resuspended in PBS/Tween 80 to approx 1×10^7 cfu/mL. Other filamentous fungi (Absidia corymbifera, Fusarium solani, Rhizomucor, Scedosporium spp., Trichophyton spp.), were grown on Sabarauds agar for 2-10 days and spores/hyphae resuspended in PBS/Tween to give approx 1×10^7 cfu/mL. Candida species (Candida albicans, Candida glabrata, Candida krusei, Candida parapsilosis and Candida tropicalis) were grown on Sabarauds agar, cells were harvested from the agar using a sterile loop and resuspended in PBS/Tween 80 to approx 1×10^6 cfu/mL. Each organism suspension was diluted in RPMI medium, containing 2% glucose and 0.135 M MOPS buffer (pH 7.0) to 0.5−2×10^4 cfu/mL for Aspergillus spp. and other filamentous fungi and 0.5-2×10^3 cfu/mL for yeast. 80 μL of an organism suspension was added to each well of the plate containing drug dilutions.
(§4) This produced MIC plates with a drug range 50-0.05 mg/L and organism inocula of 1-2×10^4 cfu/mL for Aspergillus spp. and other filamentous fungi and 1-2×10^3 cfu/mL for yeasts. All plates were incubated for 24-48 hrs at 35° C. Growth was assessed by monitoring the optical density at 485 nm for each well. The MIC of a compound is the lowest drug concentration that inhibits growth of an organism by >80% compared with a drug free control. MICs are recorded as mg/L. Other growth media can be used for susceptibility testing, and the activity of the described compounds can also be assessed in a medium comprising 1% glucose, 1% ammonium chloride and 0.5% yeast extract (YAG medium). To perform MIC tests in this medium, dilutions of compounds are prepared in microtitre plates as described above. Fungal strains to be tested are grown and harvested in an identical manner to that described above, each organism suspension is then diluted in YAG medium to 0.5-2×10^4 cfu/mL for Aspergillus spp. and other filamentous fungi and 0.5-2×10^3 cfu/mL for yeast. 80 μL of an organism suspension was added to each well of the plate containing drug dilutions. This produced MIC plates with a drug range 50-0.05 mg/L and organism inocula of 1-2×10^4 cfu/mL for Aspergillus spp. and other filamentous fungi and 1-2×10^3 cfu/mL for yeasts. All plates were incubated for 24 hrs at 35° C. Growth was assessed by monitoring the optical density at 485 nm for each well. The MIC of a compound is the lowest drug concentration that inhibits growth of an organism by >70% compared with a drug free control. MICs are recorded as mg/L. In cases where the MIC of an organism is […] mg/L the MIC is repeated using a concentration range of 0.5-0.0005 mg/L. MIC tests in YAG medium have more clear-cut endpoints and have slightly lower MICs than those performed in RPMI medium.
(§5) The following organisms were tested: Absidia corymbifera, Aspergillus flavus, Aspergillus fumigatus AF293 and AF210, Aspergillus niger, Aspergillus terreus AT4 and AT49, Candida albicans, Candida glabrata, Candida krusei, Candida parapsilosis, Candida tropicalis, Fusarium solani, Rhizomucor sp., Scedosporium apiospermum, Scedosporium prolificans, Trichophyton mentagrophytes, and Trichophyton rubrum.

Aspergillus flavus = settings: YAG medium, MIC banded into grades; for MIC: Aspergillus flavus, read-out: MIC A. flavus (grade)
Method: as §1, §2, §3, §4, §5

[1] = system: Aspergillus fumigatus AF210; settings: YAG medium, MIC banded into grades, AF210; for MIC: Aspergillus fumigatus, read-out: MIC A. fumigatus 210 (grade)
Method: as §1, §2, §3, §4, §5

[2] = system: Aspergillus fumigatus AF293; settings: YAG medium, MIC banded into grades, AF293; for MIC: Aspergillus fumigatus, read-out: MIC A. fumigatus (grade)
Method: as §1, §2, §3, §4, §5

Aspergillus niger = settings: YAG medium, MIC banded into grades; for MIC: Aspergillus niger, read-out: MIC A. niger (grade)
Method: as §1, §2, §3, §4, §5

Aspergillus terreus AT4 = settings: YAG medium, MIC banded into grades, AT4; for MIC: Aspergillus terreus, read-out: MIC A. terreus (grade)
Method: as §1, §2, §3, §4, §5

Row | MIC (Aspergillus terreus AT49) | MIC (Aspergillus flavus) | MIC [1] | MIC [2] | MIC (Aspergillus niger) | MIC (Aspergillus terreus AT4) | Structure (SMILES) | MIC A. terreus 49 (grade) (Aspergillus terreus AT49) | MIC A. flavus (grade) (Aspergillus flavus) | MIC A. fumigatus 210 (grade) [1] | MIC A. fumigatus (grade) [2] | MIC A. niger (grade) (Aspergillus niger) | MIC A. terreus (grade) (Aspergillus terreus AT4)
1 | – | – | – | – | – | – | O=C(Nc1ccc(N2CCN(Cc3cccs3)CC2)cc1)C(=O)c1c(-c2ccccc2)cc2ccccn12 [Example 33, 2-Oxo-2-(2-phenylindolizin-3-yl)-N-[4-(4-thiophen-2-ylmethylpiperazin-1-yl)phenyl] acetamide] | 3 (A grade of 3 represents an MIC of less than 1 mg/L) | 3 (A grade of 3 represents an MIC of less than 1 mg/L) | 3 (A grade of 3 represents an MIC of less than 1 mg/L) | 3 (A grade of 3 represents an MIC of less than 1 mg/L) | 3 (A grade of 3 represents an MIC of less than 1 mg/L) | 3 (A grade of 3 represents an MIC of less than 1 mg/L)
2 | < 1 µg/mL | < 1 µg/mL | < 1 µg/mL | < 1 µg/mL | < 1 µg/mL | < 1 µg/mL | CC(C)(C)CN1CCN(c2ccc(NC(=O)C(=O)c3c(-c4ccccc4)cc4ccccn34)nc2)CC1 [Example 50, N-{5-[4-(2,2-Dimethyl-propyl)-piperazin-1-yl]-pyridin-2-yl}-2-oxo-2-(2-phenyl-indolizin-3-yl)-acetamide] | – | – | – | – | – | –
3 | > 10 µg/mL | > 10 µg/mL | > 10 µg/mL | > 10 µg/mL | > 10 µg/mL | > 10 µg/mL | O=C(Nc1ccccc1F)C(=O)c1c(-c2ccccc2)cc2ccc3ccccc3n12 [Example 4, N-(2-fluoro-phenyl)-2-oxo-2-(2-phenyl-pyrrolo[1,2-a]quinolin-1-yl)-acetamide] | – | – | – | – | – | –
4 | < 1 µg/mL | < 1 µg/mL | < 1 µg/mL | < 1 µg/mL | < 1 µg/mL | < 1 µg/mL | O=C(Nc1ccc(C(=O)OC2CCOCC2)c(O)c1)C(=O)c1c(-c2ccccc2)cc2ccccn12 [Example 11, 2-hydroxy-4-[2-oxo-2-(2-phenyl-indolizin-3-yl)-acetylamino]-benzoic acid tetrahydro-pyran-4-yl ester] | – | – | – | – | – | –
5 | > 10 µg/mL | > 10 µg/mL | > 10 µg/mL | > 10 µg/mL | > 10 µg/mL | > 10 µg/mL | Cc1cc(N2CCN(c3ccc(NC(=O)C(=O)c4c(-c5ccccc5)cc5ccccn45)cc3)CC2)cc(C)n1 [Example 52, N-{4-[4-(2,6-Dimethyl-pyridin-4-yl)-piperazin-1-yl]-phenyl}-2-oxo-2-(2-phenyl-indolizin-3-yl)-acetamide] | – | – | – | – | – | –
6 | < 1 µg/mL | < 1 µg/mL | < 1 µg/mL | < 1 µg/mL | < 1 µg/mL | < 1 µg/mL | Cc1cc(C)nc(CCCCc2ccc(NC(=O)C(=O)c3c(-c4ccccc4)cc4ccccn34)cc2)c1 [Example 72, N-{4-[4-(4,6-Dimethyl-pyridin-2-yl)-butyl]-phenyl}-2-oxo-2-(2-phenyl-indolizin-3-yl)-acetamide] | – | – | – | – | – | –
7 | < 1 µg/mL | < 1 µg/mL | 1 to 10 µg/mL (≈ 1.98 to 19.8 µM) | 1 to 10 µg/mL (≈ 1.98 to 19.8 µM) | 1 to 10 µg/mL (≈ 1.98 to 19.8 µM) | < 1 µg/mL | CC(C)c1nc(C(C)(C)c2ccc(NC(=O)C(=O)c3c(-c4ccccc4)cc4ccccn34)cc2)cn1C [Example 16, N-{4-[1-(2-isopropyl-1-methyl-1H-imidazol-4-yl)-1-methyl-ethyl]-phenyl}-2-oxo-2-(2-phenyl-indolizin-3-yl)-acetamide] | – | – | – | – | – | –
8 | 1 to 10 µg/mL (≈ 1.98 to 19.8 µM) | 1 to 10 µg/mL (≈ 1.98 to 19.8 µM) | > 10 µg/mL | > 10 µg/mL | > 10 µg/mL | 1 to 10 µg/mL (≈ 1.98 to 19.8 µM) | CC(C)c1nc(C(C)(C)c2cccc(NC(=O)C(=O)c3c(-c4ccccc4)cc4ccccn34)c2)cn1C [Example 14, N-{3-[1-(2-Isopropyl-1-methyl-1H-imidazol-4-yl)-1-methyl-ethyl]-phenyl}-2-oxo-2-(2-phenyl-indolizin-3-yl)-acetamide] | – | – | – | – | – | –
9 | < 1 µg/mL | < 1 µg/mL | < 1 µg/mL | < 1 µg/mL | < 1 µg/mL | < 1 µg/mL | COCc1cc(NC(=O)C(=O)c2c(-c3ccccc3)cc3ccccn23)ccc1N1CCN(c2cc(C)cc(C)n2)CC1 [Example 81, N-{4-[4-(4,6-Dimethyl-pyridin-2-yl)-piperazin-1-yl]-3-methoxymethyl-phenyl}-2-oxo-2-(2-phenyl-indolizin-3-yl)-acetamide] | – | – | – | – | – | –
10 | < 1 µg/mL | < 1 µg/mL | < 1 µg/mL | < 1 µg/mL | < 1 µg/mL | < 1 µg/mL | Cc1cc(C)nc(N2CCN(c3cccc(NC(=O)C(=O)c4c(-c5ccccc5)cc5ccccn45)c3)CC2)c1 [Example 48, N-{3-[4-(4,6-Dimethyl-pyridin-2-yl)-piperazin-1-yl]-phenyl}-2-oxo-2-(2-phenyl-indolizin-3-yl)-acetamide] | – | – | – | – | – | –
11 | < 1 µg/mL | < 1 µg/mL | < 1 µg/mL | < 1 µg/mL | < 1 µg/mL | < 1 µg/mL | Cc1cc(C)nc(N2CCN(c3ccc(NC(=O)C(=O)c4c(C(C)C)cc5ccccn45)cc3)CC2)c1 [Example 61, N-{4-[4-(4,6-Dimethyl-pyridin-2-yl)-piperazin-1-yl]-phenyl}-2-(2-isopropyl-indolizin-3-yl)-2-oxo-acetamide] | – | – | – | – | – | –
12 | < 1 µg/mL | < 1 µg/mL | < 1 µg/mL | < 1 µg/mL | < 1 µg/mL | < 1 µg/mL | Cc1cc(C)nc(OCCOc2ccc(NC(=O)C(=O)c3c(-c4ccccc4)cc4ccccn34)cc2)c1 [Example 65, N-{4-[2-(4,6-Dimethyl-pyridin-2-yloxy)-ethoxy]-phenyl}-2-oxo-2-(2-phenyl-indolizin-3-yl)-acetamide] | – | – | – | – | – | –
13 | > 10 µg/mL | > 10 µg/mL | > 10 µg/mL | > 10 µg/mL | > 10 µg/mL | > 10 µg/mL | COc1ccc(NC(=O)C(=O)c2c(C)c(-c3ccccc3)c3ccccn23)cc1 [Example 6, N-(4-methoxy-phenyl)-2-(2-methyl-1-phenyl-indolizin-3-yl)-2-oxo-acetamide] | – | – | – | – | – | –
14 | 1 to 10 µg/mL (≈ 1.85 to 18.5 µM) | 1 to 10 µg/mL (≈ 1.85 to 18.5 µM) | 1 to 10 µg/mL (≈ 1.85 to 18.5 µM) | 1 to 10 µg/mL (≈ 1.85 to 18.5 µM) | > 10 µg/mL | 1 to 10 µg/mL (≈ 1.85 to 18.5 µM) | O=C(Nc1ccc(N2CCN(CC3CCOCC3)CC2)cc1)C(=O)c1c(-c2ccccc2)cc2ccc(F)cn12 [Example 53, 2-(6-Fluoro-2-phenyl-indolizin-3-yl)-2-oxo-N-{4-[4-(tetrahydro-pyran-4-ylmethyl)-piperazin-1-yl]-phenyl}-acetamide] | – | – | – | – | – | –
15 | < 1 µg/mL | 1 to 10 µg/mL (≈ 1.98 to 19.8 µM) | < 1 µg/mL | < 1 µg/mL | 1 to 10 µg/mL (≈ 1.98 to 19.8 µM) | < 1 µg/mL | Cc1cc(OCCOc2ccc(NC(=O)C(=O)c3c(-c4ccccc4)cc4ccccn34)cc2)cc(C)n1 [Example 71, N-{4-[2-(2,6-Dimethyl-pyridin-4-yloxy)-ethoxy]-phenyl}-2-oxo-2-(2-phenyl-indolizin-3-yl)-acetamide] | – | – | – | – | – | –
